Where two headings read alike, the source gives them in different places.
What was measured:
[1] = tested on: MCF-7 mammary tumour cells; test: Anti-proliferative activity on the growth of MCF-7 mammary tumour cells (DNA dosage); format: cell-based; details: MCF-7 cells in DSE medium with 10^-10 M estradiol, D7 to D9, DNA by DABA fluorimetry, read-out: IC 50: concentration which inhibits the growth of MCF7 cells by 50%
Protocol: 2—Anti-proliferative Activity of the Products of the Invention on the Growth of MCF-7 Mammary Tumour Cells
MCF-7 lines are kept in culture in FCS medium (according to 1) at 37° C. in a humid atmosphere containing 5% CO2. Subconfluent cells are collected by trypsination (0.05% trypsin, 0.02% EDTA) then rinsed by gentle centrifugation. A sample of cells in suspension is counted with a Malassez cell.
The cells, resuspended in DSE medium (according to 1), are seeded at the rate of 50,000 cells per well in multiwell plates (24 wells of 2.5 cm^2). Twenty-four hours after seeding (D0), the product to be tested is added to the medium in ethanolic solution (final concentration of ethanol: 0.1%), at a concentration of 10^−11 to 10^−6M, the control wells receiving the same ethanol concentration. The media are renewed every 48 hours. At the end of the experiment (D7 to D9), the medium is extracted and the cells are immediately fixed with 150 microlitres of methanol in order to dose the DNA.
The anti-proliferative activity of the products is evaluated by their capacity to inhibit the increase of DNA
The DNA is dosed by a fluorimetric method using DABA (3,5 diaminobenzoic acid) (according to 2): 150 microlitres of DABA are added to each well; the plates are then incubated for 45 mn at 56° C., then 2 ml of 1N HCl is added. The fluorescence is measured using a fluorimeter (excitation wavelength: 408 nm, emission wavelength: 510 nm).
The quantity of DNA per well is evaluated relative to a reference scale obtained by treating a calf thymus DNA standard under the same conditions.
The concentration in nM which inhibits the growth of MCF7 cells by 50% (IC50) was determined in the manner indicated above:
(1) A Base Medium is Prepared as Follows
The FCS medium is composed of 95% of base medium and 5% of foetal calf serum.
The DSE medium is composed of 95% of base medium, 5% of steroid-free foetal calf serum on carbon-dextran and 10^−10 M of estradiol.
(2) Puzas and Goodman, Analytical Biochemistry, Vol 86, p. 50, 1978

[2] = molecular target: T1, Estrogen receptor of a mouse uterus (Mus musculus, UniProt P19785); test: Activity on the estrogen receptor of a mouse uterus (relative bond affinity, displacement of tritiated estradiol); format: binding; details: mouse uterus cytosol, RBA = 100 (CH)/(CX) relative to unlabelled estradiol
T1 construct: The homogenate is then ultracentrifuged (209,000 g×30 mn.) at 0° C; from tissue; host or cells: uterus of 18 to 21-day old immature female mice, cytosol (ultracentrifugation supernatant of the homogenate)
T1 sequence (P19785 1-599): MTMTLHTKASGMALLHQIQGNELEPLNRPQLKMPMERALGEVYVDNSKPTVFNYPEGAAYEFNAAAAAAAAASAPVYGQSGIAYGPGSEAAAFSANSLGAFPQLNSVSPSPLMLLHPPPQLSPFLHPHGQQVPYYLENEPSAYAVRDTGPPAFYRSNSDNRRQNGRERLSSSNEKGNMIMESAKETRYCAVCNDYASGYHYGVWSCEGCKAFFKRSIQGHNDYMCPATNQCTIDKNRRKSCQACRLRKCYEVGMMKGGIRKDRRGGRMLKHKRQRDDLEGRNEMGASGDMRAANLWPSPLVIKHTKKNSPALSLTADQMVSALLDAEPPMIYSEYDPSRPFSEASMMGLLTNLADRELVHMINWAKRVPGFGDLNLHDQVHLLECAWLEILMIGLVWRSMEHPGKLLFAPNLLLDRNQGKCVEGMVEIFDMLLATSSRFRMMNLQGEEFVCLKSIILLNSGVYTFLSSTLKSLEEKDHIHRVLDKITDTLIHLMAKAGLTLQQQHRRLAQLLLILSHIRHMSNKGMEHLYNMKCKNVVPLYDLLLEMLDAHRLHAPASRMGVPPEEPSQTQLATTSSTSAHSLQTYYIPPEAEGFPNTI
Protocol: 1—Study of the Activity of the Products of the Invention on the Estrogen Receptor of a Mouse Uterus
18 to 21-day old impuberal female mice are sacrificed, the uteri are removed, then homogenized at 0° C., using a Potter teflon-glass in a TS buffered solution (10 mM Tris, 0.25 M saccharose, HCl pH 7.4) (1 g of tissue per 25 ml of TS). The homogenate is then ultracentrifuged (209,000 g×30 mn.) at 0° C. The supernatant aliquots thus obtained are incubated at 25° C. for 5 hours, with a constant concentration (T) of tritiated estradiol in the presence of increasing concentrations either of unlabelled estradiol (0-1000×10^−9M), or of unlabelled product to be tested (1 to 25000×10^−9M). The concentration of bound tritiated estradiol (B) is then measured in each incubate by the carbon-dextran adsorption technique.
Calculation of the Relative Bond Affinity (RBA)
The following two curves are drawn: the percentage of bound tritiated hormone B/BO as a function of the logarithm of the concentration of unlabelled reference hormone or as a function of the logarothm of the concentration of unlabelled test product.
The straight line of the following equation:
BO=% of binding of the bound tritiated hormone in the absence of any unlabelled product.
B=% of the bound tritiated hormone in the presence of a concentration X of unlabelled product.
B min=% of bound tritiated hormone in the presence of a large excess of unlabelled reference hormone (500 nM).
The intersections of the straight line I50 and the curves allow the evaluation of the concentrations of unlabelled reference hormone (CH) and of the unlabelled test product (CX) which inhibit by 50% the specific binding of the tritiated hormone on the receptor.
The relative bond affinity (RBA) of the test product is calculated by the equation: […]

IC50 [1] [nM] | SMILES | IC50 ([1]; Homo sapiens, MCF7) [nM] | Relative bond affinity (RBA), Estrogen receptor incubation 5H at 25° C. [2]
– | C[C@]12C[C@H](c3ccc(OCCCCC[S+]([O-])Cc4cccnc4)cc3)[C@@H]3c4ccc(O)cc4CC[C@H]3[C@@H]1CC[C@@H]2O (stereo partly drawn) [Example 7, 11beta-[4-[5-[(3-pyridinylmethyl)sulphinyl]pentyloxy]phenyl]estra-1,3,5(10)-triene-3,17beta-diol] | 0.026 | 26.3
– | C[C@]12C[C@H](CCCCCCCCSCc3ccccn3)[C@@H]3c4ccc(O)cc4CC[C@H]3[C@@H]1CC[C@@H]2O [Example 1, 11beta-[8-[(2-pyridinylmethyl)thio]octyl]estra-1,3,5(10)-triene-3,17beta-diol] | 0.024 | –
– | CCCCCS(=O)(=O)C(C)CCCOc1ccc([C@H]2C[C@]3(C)[C@@H](O)CC[C@H]3[C@@H]3CCc4cc(O)ccc4[C@H]32)cc1 (stereo partly drawn) [Example 60, 11beta-[4-[4-(pentylsulphonyl)pentyloxy]phenyl]estra-1,3,5(10)-triene-3,17beta-diol] | 0.25 | 18.2
0.03 | C[C@]1(O)CC[C@H]2[C@@H]3CCc4cc(O)ccc4[C@H]3[C@@H](c3ccc(OCCCCCS(=O)(=O)CCCC(F)(F)C(F)(F)F)cc3)C[C@@]21C [Example 78, 11beta-[4-[5-[(4,4,5,5,5-pentafluoropentyl)sulphonyl]pentyloxy]phenyl]17alpha-methyl estra-1,3,5(10)-triene-3,17beta-diol] | – | 21.8
– | C[C@]12C[C@H](c3ccc(OCCCCCS(=O)(=O)CCCC(F)(F)C(F)(F)F)cc3)[C@@H]3c4ccc(O)cc4CC[C@H]3[C@@H]1CC[C@@H]2O [Example 32, 11beta-[4-[5-[(4,4,5,5,5-pentafluoropentyl)sulphonyl]pentyloxy]phenyl]estra-1,3,5(10)-triene-3,17beta-diol] | 0.1 | 56
– | C[C@]12C[C@H](c3ccc(OCCCCC[S+]([O-])Cc4ccccn4)cc3)[C@@H]3c4ccc(O)cc4CC[C@H]3[C@@H]1CC[C@@H]2O (stereo partly drawn) [Example 5, 11beta-[4-[5-[(2-pyridinylmethyl)sulphinyl]-pentyloxy]phenyl]estra-1,3,5(10)-triene-3,17beta-diol] | 0.012 | 21.2
